Measured values: patent US10351591B2, “Polypeptides, peptides, and proteins functionalized by alkylation of thioether groups via ring-opening reactions” (The Regents of the University of California, priority 2015, dated 2019)

Legend:
[1] = Poly(S-alkyl-L-methionine) stability studies in aqueous buffers; type: physicochemical; settings: aqueous buffers ranging in pH from 5 to 9; 37° C., 24 h; S-alkyl-Met/Met ratio by 1H NMR
Protocol: The mixture was incubated on a 37° C. H2O bath for 24 h. […] The retentate was lyophilized.

[2] = potent nucleophile 2-mercaptopyridine; 37° C., 24 h

Question: Which “stability in aqueous buffers” value [1] does the source give for “Poly(S-(3-azido-2-hydroxypropyl)-L-methionine sulfonium chloride) [compound 4]” here?
Answer: good stability

Question: And the “stability against dealkylation by nucleophile” value [2]?
Answer: quite stable
